Source: US7981892B2, “Disubstituted phthalazine hedgehog pathway antagonists” (Eli Lilly and Company, priority 2008, dated 2011)
Where a name gives a salt, the structure may show the parent alone.

Tested on: Gli1 transcript in Daoy cells stimulated with Shh conditioned media
Test: Functional assay for measuring the inhibition of Gli1 in Daoy cells (bDNA assay of Gli1 transcript after Shh-conditioned media stimulation)
Format: cell-based
Details: Homo sapiens; Daoy cells treated with Shh-CM, 24 hours incubation with compound, Gli1 transcript by bDNA luminescence
Method: Biological activity is determined using a functional assay in Daoy neuronal cancer cells and measures levels of Gli1 ribonucleic, acid via a bDNA. (branched deoxyribonucleic acid) assay system (Panomies, Inc., Fremont, Calif.), Gli was originally discovered in a Glioblastoma cell line and encodes a zinc finger protein that is activated by Shh signaling. The maximum response is obtained by inducing Gli1 transcription in the Daoy cells with conditioned medium (HEK-293 cells stably expressing recombinant Shb) for 24 hours and. then measuring the amount of stimulated Gli1 transcript. […]
The bDNA assay system utilizes the technology of branched-chain DNA to allow amplification of a target ribonucleic acid (transcript). […] The addition of a chemilumigenic substrate during the amplification step allows for detection using luminescence, […]
Daoy cells are grown to conflunency in tissue culture T225-flasks in Daoy growth media containing Minimum Essential Medium (MEM) plus 10% Fetal Bovine Serum (FBS) with […] non-essential amino acids and 1 mM sodium pyruvate. The cells are removed from the T225-flasks using trypsin ethylenediaminetetraacetic acid (EDTA), centrifuged, resuspended in media, and then counted. […]

IC50: ~2.37 nM
Compound: CN(C(=O)c1c(F)cccc1C(F)(F)F)C1CCN(c2nnc(-c3ccccc3)c3ccccc23)CC1 [Example 36, 2-Fluoro-N-methyl-N-(1-(4-phenylphthalazin-1-yl)piperidin-4-yl)-6-(trifluoromethyl)benzamide hydrochloride]
